Assay results from article PMC8308830, “Single-Agent and Fixed-Dose Combination HIV-1 Protease Inhibitor Drugs in Fission Yeast (Schizosaccharomyces pombe)” (Pathogens, 2021).
Entries after “also recorded” stand apart in the source; their conditions may differ.

Tests used:
HIV-1 PR [1] = target: T1, HIV-1 PR (Human immunodeficiency virus type 1 group M subtype B, UniProt P12497); experiment: cell-based; conditions: for EC50: PR-on RE294 cells, growth (OD650) at 72 h post-gene induction relative to PR-off cells; for decrease of EC50 of formulated drug in comparison with pure compound: fission yeast RE294, formulated drug pill vs pure compound
Experimental: The goal of this experiment was to determine the potency of each PI drug in fission yeast by the determination of EC50. […] Briefly, both HIV-1 PR-suppressing (PR-off) and PR-producing (PR-on) RE294 cells were prepared as described above. The PR-producing cells were added with a PI drug in the final concentration as indicated. Final cellular growth was measured at 72 h post-gene induction.
(A) Pure compound of PI drugs. (B) Formulated PI drug pills. HIV-1 PR gene expression was induced in RE294 cells, as described in Figure 2. […] Cellular growth was measured at 72 h post-gene induction by optical density of 650 nm using a spectrophotometer. EC50 curves were generated by using Prism 8 software showing averages with standard error bars. The measurements were repeated with three different experiments.
Briefly, both HIV-1 PR-suppressing (PR-off) or PR-producing (PR-on) RE294 cells were prepared as described above as control and for testing. The PR-producing cells were added with a PI drug in the final concentration as shown. Final cellular growth was measured at 72 h post-gene induction by optical density of 650 nm using a spectrophotometer.

HIV = conditions: human cells, antiviral activity; per-drug references in Table 2; read-out: EC50 in Human Cell; cited from earlier work
HIV-1 PR [2] = target: T1, HIV-1 PR; conditions: 150 μM drug; G31 cells; 20 h post-gene induction
HIV-1 PR [3] = target: T1, HIV-1 PR; experiment: Fission yeast colony formation assay, wild-type HIV-1 PR (RE294 strain); format: cell-based; design: HIV-1 PR is a dimeric aspartyl protease that consists of two identical subunits with 99 amino acids; expressed in transfected cells; host or cells: Schizosaccharomyces pombe strain RE294; conditions: 150 μM drug; PR-on RE294 cells; 4–5 days at 30 °C; pure chemical forms and formulated drug pills
Experimental: The effect of the above-mentioned FDA-approved PI drugs on fission yeast colony formation was tested in the presence and absence of HIV-1 PR. Specifically, a fission yeast RE294 strain, which carries a single and integrated copy of HIV-1 PR gene in the yeast chromosome, was used in this experiment. One thousand active growing and log-phase RE294 cells were evenly spread and cultured on the six-well agar wells containing the minimal and selective PMG medium in presence of 20 µM of thiamine (PR-off) or absence of thiamine (PR-on) with incubation at 30 °C for 4–5 days. […] To test the effect of a PI drug on the colony formation, 150 μM of each drug was added to the respective agar well in the presence of HIV-1 PR. Since all those drugs were dissolved in dimethyl sulfoxide (DMSO), to test the potential DMSO effect on the yeast colony formation, DMSO in the final concentration of 1% was added to the PR-on well as a mock control (Figure 2A). […]
A modified fission yeast colony-formation assay was used to investigate the effect of the PR gene expression on fission yeast cell proliferation from previously described protocol. […] The inhibitory effect of each FDA PI drug on yeast colony formation was evaluated 4–5 days after plating by comparing the growth of the colonies of the drug-treated wells to that of the mock DMSO controls.

HIV-1 PR [4] = target: T1, HIV-1 PR; format: cell-based; design: HIV-1 PR is a dimeric aspartyl protease that consists of two identical subunits with 99 amino acids; expressed in transfected cells; host or cells: Schizosaccharomyces pombe strain RE294; conditions: 150 μM drug; PR-on RE294 cells; OD650 over 72 h; formulated single-agent and combination drugs
[5] = EC50 in Fission Yeast /Pure Compound, pure compound
[6] = EC50 in Fission Yeast /Drug Formulation, compounds in drug pill forms

Compound | EC50 (HIV-1 PR [1]; [5]) [nM] | EC50 (HIV) [nM] | decrease of EC50 of formulated drug in comparison with pure compound (HIV-1 PR [1]) [%] | other results
CC(C)CN(C[C@@H](O)[C@H](Cc1ccccc1)NC(=O)O[C@H]1CCOC1)S(=O)(=O)c1ccc(N)cc1 [APV, Amprenavir] | 55400 ± 3180 | 15 to 60 | – | –
COC(=O)N[C@H](C(=O)N[C@@H](Cc1ccccc1)[C@@H](O)CN(Cc1ccc(-c2ccccn2)cc1)NC(=O)[C@@H](NC(=O)OC)C(C)(C)C)C(C)(C)C [ATV, Atazanavir] | 21080 ± 70 | 2 to 5 | 22.5 | EC50 (HIV-1 PR [1]; [6]): 16300 ± 950 nM
CC(C)CN(C[C@@H](O)[C@H](Cc1ccccc1)NC(=O)O[C@H]1CO[C@H]2OCC[C@H]21)S(=O)(=O)c1ccc(N)cc1 [DRV, Darunavir] | – | 1 to 10 | 28.5 | –
CC(C)CN(C[C@@H](OP(=O)(O)O)[C@H](Cc1ccccc1)NC(=O)O[C@H]1CCOC1)S(=O)(=O)c1ccc(N)cc1 [FPV, Fosamprenavir] | – | – | – | EC50 (HIV-1 PR [1]; [6]): > 150000 nM; inhibitory activity against the HIV-1 PR in fission yeast (HIV-1 PR [1]; wild-type PR, fission yeast): no inhibitory activity; also recorded: did not show any inhibitory effect; inhibition of HIV-1 PR proteolytic cleavage of GFP-MA↓CA-Vpr (Vpr pattern vs GFP pattern) (HIV-1 PR [2]): no suppression; suppression of the inhibitory effect of HIV-1 PR on colony formation (HIV-1 PR [3]): did not suppress; suppression of HIV-1 PR-induced growth arrest, formulated drug pills (HIV-1 PR [4]): did not suppress
CC(C)(C)NC(=O)[C@@H]1CN(Cc2cccnc2)CCN1C[C@@H](O)C[C@@H](Cc1ccccc1)C(=O)N[C@H]1c2ccccc2C[C@H]1O [IDV, Indinavir] | – | 5 to 30 | – | –
Cc1cccc(C)c1OCC(=O)N[C@@H](Cc1ccccc1)[C@@H](O)C[C@H](Cc1ccccc1)NC(=O)[C@H](C(C)C)N1CCCNC1=O [LPV, Lopinavir] | – | 4 to 11 | – | –
Cc1c(O)cccc1C(=O)N[C@@H](CSc1ccccc1)[C@H](O)CN1C[C@H]2CCCC[C@H]2C[C@H]1C(=O)NC(C)(C)C [NFV, Nelfinavir] | 9700 ± 340 | 3 to 40 | – | –
CC(C)c1nc(CN(C)C(=O)N[C@H](C(=O)N[C@@H](Cc2ccccc2)C[C@H](O)[C@H](Cc2ccccc2)NC(=O)OCc2cncs2)C(C)C)cs1 [RTV, Ritonavir] | – | 40 to 100 | 38.9 | –
CC(C)(C)NC(=O)[C@@H]1C[C@@H]2CCCC[C@@H]2CN1C[C@@H](O)[C@H](Cc1ccccc1)NC(=O)[C@H](CC(N)=O)NC(=O)c1ccc2ccccc2n1 [SQV, Saquinavir] | – | 5 to 25 | – | –
CCC[C@@]1(CCc2ccccc2)CC(O)=C([C@H](CC)c2cccc(NS(=O)(=O)c3ccc(C(F)(F)F)cn3)c2)C(=O)O1 [TPV, Tipranavir] | 7060 ± 320 | 30 to 70 | – | –
